The values below come from article PMC10812132 (Journal of biomolecular screening, 2010).

Values joined by “and” are separate entries in the source; they are usually repeats but may differ in a detail not shown here. Equal entries are not always repeated.

Assay [1] deals with Influenza A/Vietnam/1203/2004 (H5N1). The assay is classed as cell-based, influenza A virus. The following applies: 72 h.
The test system of assay [2] is influenza A/Brisbane/59/2007 (H1N1) virus. The assay is classed as cell-based.

In the case of `O=S(=O)(O)c1cc(O)c(N=Nc2ccc3cccc(S(=O)(=O)O)c3c2O)c2ccccc12` [SR 22859], the “SI values (SI = IC50/EC50) of screening hits” value (“SI values (SI = IC50/EC50)” below) in assay [1] is recorded as greater than 13.8.
With `O=C(Nc1c(-c2ccccc2)nc2sccn12)c1ccccc1` [compound 786409], in assay [1], the “SI values (SI = IC50/EC50)” value was greater than 94.6.
Take `CN(C)c1cccc(C(=O)Nc2ccc3nc4n(c(=O)c3c2)CCCCC4)c1` [compound 9551353]: the “SI values (SI = IC50/EC50)” value in assay [1] is on record as greater than 3.5.
Consider `NC(=O)c1ncn([C@@H]2O[C@H](CO)[C@@H](O)[C@H]2O)n1` [ribavirin], for which the “Reduction in M1 RNA levels vs no-drug infected MDCK cells” value in assay [2] is 1.3 fold and 1.9 fold.
